Measurements published in ChEMBL document CHEMBL1681651, “A broad spectrum anticancer nucleoside with selective toxicity against human colon cells in vitro” (2011).

Legend:
Assay type in all cases: functional
HT-29 = assay: Growth inhibition of human HT-29 cells assessed as cell growth at 100 uM after 48 hrs by SRB assay; conditions: HT-29, 48 h, read-out: Activity
RXF 393 [1] = assay: Growth inhibition of human RXF393 cells assessed as cell growth at 100 uM after 48 hrs by SRB assay; conditions: RXF 393, 48 h, read-out: Activity
OVCAR-8 [2] = assay: Growth inhibition of human OVCAR8 cells assessed as cell growth at 1 mM after 48 hrs by SRB assay; conditions: OVCAR-8, 48 h, read-out: Activity
786-0 = assay: Growth inhibition of human 786-0 cells after 48 hrs by […] growth inhibition assay; conditions: 786-0, 48 h
[3] = Growth inhibition of human […] cells assessed as cell growth at 1 mM after 48 hrs by SRB assay; conditions: read-out: Activity
HCT-15 = assay: Growth inhibition of human HCT15 cells assessed as cell growth at 10 uM after 48 hrs by SRB assay; conditions: HCT-15, 48 h, read-out: Activity
SF-268 = assay: Growth inhibition of human SF268 cells assessed as cell growth at 10 uM after 48 hrs by SRB assay; conditions: SF-268, 48 h, read-out: Activity
A498 = assay: Growth inhibition of human A498 cells assessed as cell growth at 0.1 uM after 48 hrs by SRB assay; conditions: A498, 48 h, read-out: Activity
BT-549 [4] = assay: Growth inhibition of human BT549 cells assessed as cell growth at 1 uM after 48 hrs by SRB assay; conditions: BT-549, 48 h, read-out: Activity
EKVX = assay: Growth inhibition of human EKVX cells after 48 hrs by […] growth inhibition assay
BT-549 [5] = assay: Growth inhibition of human BT549 cells after 48 hrs by […] growth inhibition assay; conditions: BT-549, 48 h
HOP-62 = assay: Growth inhibition of human HOP62 cells assessed as cell growth at 1 uM after 48 hrs by SRB assay; conditions: HOP-62, 48 h, read-out: Activity
U-251 = assay: Growth inhibition of human U251 cells assessed as cell growth at 100 uM after 48 hrs by SRB assay; conditions: U-251, 48 h, read-out: Activity
NCI-H460 = assay: Growth inhibition of human NCI-H460 cells assessed as cell growth at 10 uM after 48 hrs by SRB assay; conditions: NCI-H460, 48 h, read-out: Activity
SK-MEL-5 = assay: Growth inhibition of human SK-MEL-5 cells assessed as cell growth at 1 mM after 48 hrs by SRB assay; conditions: SK-MEL-5, 48 h, read-out: Activity
SF-295 = assay: Growth inhibition of human SF295 cells assessed as cell growth at 100 uM after 48 hrs by SRB assay; conditions: SF-295, 48 h, read-out: Activity
RXF 393 [6] = assay: Growth inhibition of human RXF393 cells assessed as cell growth at 1 uM after 48 hrs by SRB assay; conditions: RXF 393, 48 h, read-out: Activity
NCI-H322M = assay: Growth inhibition of human NCI-H322M cells assessed as cell growth at 0.1 uM after 48 hrs by SRB assay; conditions: read-out: Activity
UO-31 = assay: Growth inhibition of human UO31 cells assessed as cell growth at 100 uM after 48 hrs by SRB assay; conditions: UO-31, 48 h, read-out: Activity
NCI/ADR-RES = assay: Growth inhibition of human NCI/ADR-RES cells assessed as cell growth at 10 uM after 48 hrs by SRB assay; conditions: read-out: Activity
IGROV-1 = assay: Growth inhibition of human IGROV1 cells assessed as cell growth at 10 uM after 48 hrs by SRB assay; conditions: IGROV-1, 48 h, read-out: Activity
OVCAR-5 = assay: Growth inhibition of human OVCAR5 cells assessed as cell growth at 1 uM after 48 hrs by SRB assay; conditions: OVCAR-5, 48 h, read-out: Activity
KM12 = assay: Growth inhibition of human KM12 cells assessed as cell growth at 1 uM after 48 hrs by SRB assay; conditions: KM12, 48 h, read-out: Activity
HCC 2998 = assay: Growth inhibition of human HCC2998 cells assessed as cell growth at 1 uM after 48 hrs by SRB assay; conditions: HCC 2998, 48 h, read-out: Activity
UACC-257 = assay: Growth inhibition of human UACC257 cells assessed as cell growth at 0.1 uM after 48 hrs by SRB assay; conditions: UACC-257, 48 h, read-out: Activity
SN12C = assay: Growth inhibition of human SN12C cells assessed as cell growth at 0.1 uM after 48 hrs by SRB assay; conditions: read-out: Activity
SNB-19 = assay: Growth inhibition of human SNB19 cells assessed as cell growth at 0.1 uM after 48 hrs by SRB assay; conditions: SNB-19, 48 h, read-out: Activity
OVCAR-8 [7] = assay: Growth inhibition of human OVCAR8 cells after 48 hrs by […] growth inhibition assay; conditions: OVCAR-8, 48 h
M14 = assay: Growth inhibition of human M14 cells assessed as cell growth at 0.1 uM after 48 hrs by SRB assay; conditions: M14, 48 h, read-out: Activity
SK-OV-3 = assay: Growth inhibition of human SKOV3 cells assessed as cell growth at 10 uM after 48 hrs by SRB assay; conditions: SK-OV-3, 48 h, read-out: Activity
UACC-62 = assay: Growth inhibition of human UACC62 cells assessed as cell growth at 1 uM after 48 hrs by SRB assay; conditions: UACC-62, 48 h, read-out: Activity
OVCAR-3 = assay: Growth inhibition of human OVCAR3 cells assessed as cell growth at 0.1 uM after 48 hrs by SRB assay; conditions: OVCAR-3, 48 h, read-out: Activity
MCF7 = assay: Growth inhibition of human MCF7 cells assessed as cell growth at 1 uM after 48 hrs by SRB assay; conditions: MCF7, 48 h, read-out: Activity
[8] = read-out: LC50 (the source's name)
[9] = read-out: pLC50 (the source's name) (converted)

CNC(=O)NC[C@H]1O[C@@H](n2cnc3c(NC(=O)Nc4ccccc4)ncnc32)[C@H](O[Si](C)(C)C(C)(C)C)[C@@H]1CC(=O)N(C)OC
growth at 100 µM (HT-29): 32%
growth at 100 µM (RXF 393 [1]): 49%
growth at 1000 µM (OVCAR-8 [2]): 22%
GI50 (786-0; read-out: GI50): 9.01 µM
CC50 (786-0; [8]): > 100 µM
TGI (786-0; read-out: TGI): > 100 µM
GI50 (786-0; read-out: pGI50 (converted)): 8.91 µM
CC50 (786-0; [9]): > 100 µM
TGI (786-0; read-out: pTGI (converted)): > 100 µM
growth at 1000 µM [3]: -16%
growth at 10 µM (HCT-15): 93%
growth at 10 µM (SF-268): 91%
growth at 0.1 µM (A498): 90%
growth at 1 µM (BT-549 [4]): 98%
GI50 (EKVX; read-out: GI50): 26.4 µM
CC50 (EKVX; [8]): > 100 µM
TGI (EKVX; read-out: TGI): > 100 µM
GI50 (EKVX; read-out: pGI50 (converted)): 26.3 µM
CC50 (EKVX; [9]): > 100 µM
TGI (EKVX; read-out: pTGI (converted)): > 100 µM
GI50 (BT-549 [5]; read-out: GI50): 29 µM
CC50 (BT-549 [5]; [8]): > 100 µM
TGI (BT-549 [5]; read-out: TGI): > 100 µM
GI50 (BT-549 [5]; read-out: pGI50 (converted)): 28.8 µM
CC50 (BT-549 [5]; [9]): > 100 µM
TGI (BT-549 [5]; read-out: pTGI (converted)): > 100 µM
growth at 1 µM (HOP-62): 88%
growth at 100 µM (U-251): 37%
growth at 10 µM (NCI-H460): 90%
growth at 1000 µM (SK-MEL-5): 11%
growth at 100 µM (SF-295): 48%
growth at 1 µM (RXF 393 [6]): 100%
growth at 0.1 µM (NCI-H322M): 97%
growth at 100 µM (UO-31): 46%
growth at 10 µM (NCI/ADR-RES): 105%
growth at 10 µM (IGROV-1): 82%
growth at 1 µM (OVCAR-5): 98%
growth at 1 µM (KM12): 108%
growth at 1 µM (HCC 2998): 97%
growth at 0.1 µM (UACC-257): 95%
growth at 0.1 µM (SN12C): 106%
growth at 0.1 µM (SNB-19): 94%
GI50 (OVCAR-8 [7]; read-out: GI50): 9.02 µM
CC50 (OVCAR-8 [7]; [8]): > 100 µM
TGI (OVCAR-8 [7]; read-out: TGI): > 100 µM
GI50 (OVCAR-8 [7]; read-out: pGI50 (converted)): 9.12 µM
CC50 (OVCAR-8 [7]; [9]): > 100 µM
TGI (OVCAR-8 [7]; read-out: pTGI (converted)): > 100 µM
growth at 0.1 µM (M14): 98%
growth at 10 µM (SK-OV-3): 95%
growth at 1 µM (UACC-62): 107%
growth at 0.1 µM (OVCAR-3): 95%
growth at 1 µM (MCF7): 95%

CCOC(=O)C[C@H]1[C@@H](O[Si](C)(C)C(C)(C)C)[C@H](n2cnc3c(NC(=O)Nc4ccccc4)ncnc32)O[C@@H]1CNC(=O)NC
growth at 100 µM (HT-29): 17%
growth at 100 µM (RXF 393 [1]): -46%
growth at 1000 µM (OVCAR-8 [2]): -4%
GI50 (786-0; read-out: GI50): 2 µM
CC50 (786-0; [8]): 17.9 µM
TGI (786-0; read-out: TGI): 5.21 µM
GI50 (786-0; read-out: pGI50 (converted)): 2 µM
CC50 (786-0; [9]): 17.8 µM
TGI (786-0; read-out: pTGI (converted)): 5.25 µM
growth at 1000 µM [3]: -57%
growth at 10 µM (HCT-15): 94%
growth at 10 µM (SF-268): 93%
growth at 0.1 µM (A498): 95%
growth at 1 µM (BT-549 [4]): 109%
GI50 (EKVX; read-out: GI50): 17.7 µM
CC50 (EKVX; [8]): > 100 µM
TGI (EKVX; read-out: TGI): > 100 µM
GI50 (EKVX; read-out: pGI50 (converted)): 17.8 µM
CC50 (EKVX; [9]): > 100 µM
TGI (EKVX; read-out: pTGI (converted)): > 100 µM
GI50 (BT-549 [5]; read-out: GI50): > 100 µM
CC50 (BT-549 [5]; [8]): > 100 µM
TGI (BT-549 [5]; read-out: TGI): > 100 µM
GI50 (BT-549 [5]; read-out: pGI50 (converted)): > 100 µM
CC50 (BT-549 [5]; [9]): > 100 µM
TGI (BT-549 [5]; read-out: pTGI (converted)): > 100 µM
growth at 1 µM (HOP-62): 92%
growth at 100 µM (U-251): 28%
growth at 10 µM (NCI-H460): 101%
growth at 1000 µM (SK-MEL-5): 11%
growth at 100 µM (SF-295): 38%
growth at 1 µM (RXF 393 [6]): 97%
growth at 0.1 µM (NCI-H322M): 105%
growth at 100 µM (UO-31): 61%
growth at 10 µM (NCI/ADR-RES): 104%
growth at 10 µM (IGROV-1): 93%
growth at 1 µM (OVCAR-5): 103%
growth at 1 µM (KM12): 112%
growth at 1 µM (HCC 2998): 96%
growth at 0.1 µM (UACC-257): 102%
growth at 0.1 µM (SN12C): 101%
growth at 0.1 µM (SNB-19): 92%
GI50 (OVCAR-8 [7]; read-out: GI50): 4.92 µM
CC50 (OVCAR-8 [7]; [8]): > 100 µM
TGI (OVCAR-8 [7]; read-out: TGI): 77.2 µM
GI50 (OVCAR-8 [7]; read-out: pGI50 (converted)): 4.9 µM
CC50 (OVCAR-8 [7]; [9]): > 100 µM
TGI (OVCAR-8 [7]; read-out: pTGI (converted)): 77.6 µM
growth at 0.1 µM (M14): 90%
growth at 10 µM (SK-OV-3): 90%
growth at 1 µM (UACC-62): 102%
growth at 0.1 µM (OVCAR-3): 114%
growth at 1 µM (MCF7): 91%
